Test results as given in patent US20250223268A1, “4-Methylsulfonylbenzamide Compound, Preparation Method, Herbicidal Composition And Use” (Jiangsu Flag Chemical Industry Co., Ltd., priority 2022, published 2025).

What was measured:
Type in all cases: in vivo
Leptochloa chinensis [1] = test: Greenhouse herbicidal activity and crop safety comparison (Test Example 2); conditions: Rate 150 g/ha
Excerpt: (§1) Pre-emergence: Seeds of gramineous weeds (Echinochloa crusgalli, Echinochloa crusgalli var. zelayensis, Echinochloa phyllopogon, Eleusine indica, Digitaria sanguinalis, Leptochloa chinensis, Setaria viridis, Alopecurus japonicus Steud, Beckmannia syzigachne, Polypogon fugax, Alopecurus aequalis, Lolium multiflorum, Poa annua, Aegilops tataschii, Avena fatua, Alopecurus myosuroides, Bromus japonicus), broadleaf weeds (Eclipta prostrata, Amaranthus retroflexus, Rorippa indica, Myosoton aquaticum, Veronica didyma, Galium aparine, Solanum nigrum, Xanthium sibiricum, Conyza canadensis, Sesbania cannabina, Sagittaria trifolia), and Cyperus iria (Cyperus iria, Scirpus juncoides, Cyperus difformis, etc.) were sown in plastic pots (7 cm diameter) with nutrient soil and bottom holes. Crop seeds (including Oryza sativa subsp. indica, Oryza sativa subsp. japonica, Oryza sativa L. var. Glutinosa matsum, Triticum aestivum, Zea mays, Sorghum bicolor, Setaria italica, Glycine max, Gossypium hirsutum, Brassica napus, Arachis hypogaea) were sown in plastic pots (10 cm diameter) with nutrient soil and bottom holes. After sowing, the seeds were lightly covered with soil, and the soil was moistened via bottom water absorption. The pots were placed in a constant-temperature light-controlled growth chamber for 24 hours before soil spraying. Spraying was performed using a 3WP-2000 walking-type spray tower (produced by the Nanjing Agricultural Mechanization Institute, Ministry of Agriculture) with a spindle speed of 96 mm/r, spray height of 300 mm, effective spray width of 350 mm, spray area of 0.35 m^2, and nozzle flow rate of 390 mL/min.
(§2) After treatment, the test materials were air-dried naturally in the laboratory and then transferred to the growth chamber. Results were assessed 14-30 days later.
(§3) Post-emergence: Seeds of gramineous weeds (Echinochloa crusgalli, Echinochloa crusgalli var. zelayensis, Echinochloa phyllopogon, Eleusine indica, Digitaria sanguinalis, Leptochloa chinensis, Setaria viridis, Alopecurus japonicus Steud, Beckmannia syzigachne, Polypogon fugax, Alopecurus aequalis, Lolium multiflorum, Poa annua, Aegilops tataschii, Avena fatua, Alopecurus myosuroides, Bromus japonicus), broadleaf weeds (Eclipta prostrata, Amaranthus retroflexus, Rorippa indica, Myosoton aquaticum, Veronica didyma, Galium aparine, Solanum nigrum, Xanthium sibiricum, Conyza canadensis, Sesbania cannabina, Sagittaria trifolia), and Cyperus iria (Cyperus iria, Scirpus juncoides, Cyperus difformis, etc.) were sown in plastic pots (7 cm diameter) with nutrient soil and bottom holes. Crop seeds (including Oryza sativa subsp. indica, Oryza sativa subsp. japonica, Oryza sativa L. var. Glutinosa matsum, Triticum aestivum, Zea mays, Sorghum bicolor, Setaria italica, Glycine max, Gossypium hirsutum, Brassica napus, Arachis hypogaea) were sown in plastic pots (10 cm diameter) with nutrient soil and bottom holes. After sowing, the pots were placed in the growth chamber until the plants reached the 3-6 leaf stage for foliar spraying. Post-treatment, the materials were air-dried naturally and returned to the growth chamber. Results were assessed 14-21 days later.
(§4) • A: Fresh weight inhibition rate≥80% to 100%; • B: Fresh weight inhibition rate[…] to <80%; • C: Fresh weight inhibition rate≥40% to <60%; • D: Fresh weight inhibition rate≥20% to <40%; • E: Fresh weight inhibition rate<20%; • NT: Not tested.
(§5) Using the above method, the herbicidal activity and crop safety of the present compounds were compared with structurally similar known compounds (CK1, CK2, CK3, CK4: compounds 4-756, 4-759, 1-557, 1-563 from WO2012028579A1; CK5: compound 290-1 from WO2013087577A1; CK6: compound 1-129 from WO2011035874A1).

[2] = tested on: Oryza sativa subsp. japonica; test: as above
Excerpt: as §1, §2, §3, §4, §5

[3] = tested on: Oryza sativa subsp. indica; test: as above
Excerpt: as §1, §2, §3, §4, §5

Leptochloa chinensis [4] = test: Greenhouse herbicidal activity assay, post-emergence; conditions: Post-emergence test, rate 150 g a.i./hm^2, grade by fresh weight inhibition rate
Procedure, shortened: (§6)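 Weeds were sown in nutrient soil in 7 cm pots and grown in a growth chamber to the 3-6 leaf stage, then foliar-sprayed, air-dried and returned to the chamber. Fresh weight inhibition was scored 14-21 days later in bands from A (≥80% to 100%) to E (<20%).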

Echinochloa crusgalli [5] = test: Greenhouse herbicidal activity and crop safety comparison (Test Example 2)
Excerpt: as §1, §2, §3, §4, §5

Echinochloa crusgalli [6] = test: Greenhouse herbicidal activity assay, post-emergence; conditions: Post-emergence test, rate 150 g a.i./hm^2, grade by fresh weight inhibition rate
Procedure, shortened: as §6

Cyperus iria = test: as above; conditions: Post-emergence test, rate 150 g a.i./hm^2, grade by fresh weight inhibition rate
Procedure, shortened: as §6

Eclipta prostrata = test: as above; conditions: Post-emergence test, rate 150 g a.i./hm^2, grade by fresh weight inhibition rate
Procedure, shortened: as §6

Digitaria sanguinalis = test: as above; conditions: Post-emergence test, rate 150 g a.i./hm^2, grade by fresh weight inhibition rate
Procedure, shortened: as §6

Row | SMILES | Leptochloa chinensis, control efficacy grading (fresh weight inhibition rate) (Leptochloa chinensis [1]) | Oryza sativa subsp. japonica, grading of fresh weight inhibition rate (crop safety) ([2]; Rate 150 g/ha) | Oryza sativa subsp. indica, grading of fresh weight inhibition rate (crop safety) ([3]; Rate 150 g/ha) | Control efficacy grade, Leptochloa chinensis (Leptochloa chinensis [4]) | Echinochloa crusgalli, control efficacy grading (fresh weight inhibition rate) (Echinochloa crusgalli [5]; Rate 150 g/ha) | Control efficacy grade, Echinochloa crusgalli (Echinochloa crusgalli [6]) | Control efficacy grade, Cyperus iria (Cyperus iria) | Control efficacy grade, Eclipta prostrata (Eclipta prostrata) | Control efficacy grade, Digitaria sanguinalis (Digitaria sanguinalis) | Echinochloa crusgalli, control efficacy grading (fresh weight inhibition rate) (Echinochloa crusgalli [5]; Rate 250 g/ha) | Oryza sativa subsp. japonica, grading of fresh weight inhibition rate (crop safety) ([2]; Rate 250 g/ha) | Oryza sativa subsp. indica, grading of fresh weight inhibition rate (crop safety) ([3]; Rate 250 g/ha) | inhibition at 150 g/ha (Echinochloa crusgalli [5]; Echinochloa crus-galli, Rate 150 g/ha, read-out: Echinochloa crusgalli, control efficacy grading (fresh weight inhibition rate)) [%] | pest or weed control at 150 g/ha (Echinochloa crusgalli [6]; Echinochloa crus-galli, read-out: Control efficacy grade, Echinochloa crusgalli) [%] | pest or weed control at 150 g/ha (Leptochloa chinensis [4]; Dinebra chinensis, read-out: Control efficacy grade, Leptochloa chinensis) [%] | pest or weed control at 150 g/ha (Cyperus iria; Cyperus iria, read-out: Control efficacy grade, Cyperus iria) [%] | pest or weed control at 150 g/ha (Eclipta prostrata; Eclipta prostrata, read-out: Control efficacy grade, Eclipta prostrata) [%] | pest or weed control at 150 g/ha (Digitaria sanguinalis; Digitaria sanguinalis, read-out: Control efficacy grade, Digitaria sanguinalis) [%]
1 | Cc1nnc(NC(=O)c2ccc(S(C)(=O)=O)c(S(=O)(=O)CCCl)c2Cl)o1 [Compound 3-216] | A (Fresh weight inhibition rate≥80% to 100%) | E (Fresh weight inhibition rate<20%) | E (Fresh weight inhibition rate<20%) | A (Fresh weight inhibition rate≥80% to 100%) |  |  |  |  |  |  |  |  |  |  |  |  |  | 
2 | CC(C)S(=O)(=O)c1c(S(C)(=O)=O)ccc(C(=O)Nc2nnnn2C)c1Cl [Compound 1-10] |  | E (Fresh weight inhibition rate<20%) | E (Fresh weight inhibition rate<20%) | A (Fresh weight inhibition rate≥80% to 100%) | A (Fresh weight inhibition rate≥80% to 100%) | A (Fresh weight inhibition rate≥80% to 100%) | A (Fresh weight inhibition rate≥80% to 100%) | A (Fresh weight inhibition rate≥80% to 100%) | A (Fresh weight inhibition rate≥80% to 100%) |  |  |  |  |  |  |  |  | 
3 | C=CCS(=O)(=O)c1c(S(C)(=O)=O)ccc(C(=O)Nc2nnnn2C)c1Cl [Compound 1-71] |  |  |  | A (Fresh weight inhibition rate≥80% to 100%) |  | A (Fresh weight inhibition rate≥80% to 100%) | A (Fresh weight inhibition rate≥80% to 100%) | A (Fresh weight inhibition rate≥80% to 100%) | A (Fresh weight inhibition rate≥80% to 100%) | A (Fresh weight inhibition rate≥80% to 100%) | E (Fresh weight inhibition rate<20%) | E (Fresh weight inhibition rate<20%) |  |  |  |  |  | 
4 | CS(=O)(=O)c1ccc(C(=O)Nc2nnc(C3CC3)o2)c(Cl)c1S(=O)(=O)C1CCCC1 [Compound 3-665] | A (Fresh weight inhibition rate≥80% to 100%) | E (Fresh weight inhibition rate<20%) | E (Fresh weight inhibition rate<20%) | A (Fresh weight inhibition rate≥80% to 100%) |  |  | B (Fresh weight inhibition rate≥260% to <80%) | A (Fresh weight inhibition rate≥80% to 100%) |  |  |  |  |  |  |  |  |  | 
5 | Cn1nnnc1NC(=O)c1ccc(S(C)(=O)=O)c(S(=O)(=O)CC2CC2)c1Cl [Compound 1-31] |  | E (Fresh weight inhibition rate<20%) | E (Fresh weight inhibition rate<20%) | A (Fresh weight inhibition rate≥80% to 100%) | A (Fresh weight inhibition rate≥80% to 100%) | A (Fresh weight inhibition rate≥80% to 100%) | A (Fresh weight inhibition rate≥80% to 100%) | A (Fresh weight inhibition rate≥80% to 100%) | A (Fresh weight inhibition rate≥80% to 100%) |  |  |  |  |  |  |  |  | 
6 | CCC(C)S(=O)(=O)c1c(S(C)(=O)=O)ccc(C(=O)Nc2nnnn2C)c1Cl (racemic) [Compound 1-24] |  | E (Fresh weight inhibition rate<20%) | E (Fresh weight inhibition rate<20%) | A (Fresh weight inhibition rate≥80% to 100%) | A (Fresh weight inhibition rate≥80% to 100%) | A (Fresh weight inhibition rate≥80% to 100%) | A (Fresh weight inhibition rate≥80% to 100%) | A (Fresh weight inhibition rate≥80% to 100%) | B (Fresh weight inhibition rate≥260% to <80%) |  |  |  |  |  |  |  |  | 
7 | CC(C)c1nnc(NC(=O)c2ccc(S(C)(=O)=O)c(S(=O)(=O)C3CCCC3)c2Cl)o1 [Compound 3-549] | A (Fresh weight inhibition rate≥80% to 100%) | E (Fresh weight inhibition rate<20%) | E (Fresh weight inhibition rate<20%) | A (Fresh weight inhibition rate≥80% to 100%) |  |  | A (Fresh weight inhibition rate≥80% to 100%) | A (Fresh weight inhibition rate≥80% to 100%) |  |  |  |  |  |  |  |  |  | 
8 | CC(C)c1nnc(NC(=O)c2ccc(S(C)(=O)=O)c(S(=O)(=O)C3CCC3)c2Cl)o1 [Compound 3-544] | A (Fresh weight inhibition rate≥80% to 100%) | E (Fresh weight inhibition rate<20%) | E (Fresh weight inhibition rate<20%) | A (Fresh weight inhibition rate≥80% to 100%) |  | B (Fresh weight inhibition rate≥260% to <80%) | A (Fresh weight inhibition rate≥80% to 100%) | A (Fresh weight inhibition rate≥80% to 100%) |  |  |  |  |  |  |  |  |  | 
9 | CCCS(=O)(=O)c1c(S(C)(=O)=O)ccc(C(=O)Nc2nnnn2C)c1Cl [Compound 1-5, 2-chloro-N-(1-methyl-1H-tetrazol-5-yl)-4-(methylsulfonyl)-3-(propylsulfonyl)benzamide] |  | E (Fresh weight inhibition rate<20%) | E (Fresh weight inhibition rate<20%) |  |  |  |  |  |  |  |  |  | 80 to 100 | 80 to 100 | 80 to 100 | 80 to 100 | 80 to 100 | 80 to 100
10 | Cn1nnnc1NC(=O)c1ccc(S(C)(=O)=O)c(S(=O)(=O)C2CC2)c1Cl [Compound 1-36] |  | E (Fresh weight inhibition rate<20%) | E (Fresh weight inhibition rate<20%) | A (Fresh weight inhibition rate≥80% to 100%) | A (Fresh weight inhibition rate≥80% to 100%) | A (Fresh weight inhibition rate≥80% to 100%) | A (Fresh weight inhibition rate≥80% to 100%) | A (Fresh weight inhibition rate≥80% to 100%) | A (Fresh weight inhibition rate≥80% to 100%) |  |  |  |  |  |  |  |  | 
